Results as given in US20240376073A1 (Hoffmann-La Roche Inc., priority 2021, published 2024).
Where a name gives a salt, the structure may show the parent alone. Read-outs that look alike come from different tables or passages of the source.

Tested on: Acinetobacter baumannii ATCC17961
Assay: Antimicrobial susceptibility testing: 90% growth inhibitory concentration (IC90) determination
Format: cell-based
Conditions: Iso-Sensitest broth, growth by OD 600 nm over 16 h, 35±2° C.
Summary of the method: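 Twofold serial dilutions (e.g. 50 to 0.097 μM final) in Iso-Sensitest broth, inoculated at ~5×10^(5) CFU/ml, incubated at 35±2° C. OD600 read every 20 min over 16 h; IC90 derived from growth inhibition during logarithmic growth.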

[1] = Acinetobacter baumannii ATCC17961, read-out: ATCC 17961 IC90

SMILES	IC90 [1] [nM]	IC90 (Acinetobacter baumannii, ATCC17961, 16 h, read-out: ATCC 17961 IC90, Acinetobacter baumannii ATCC17961) [nM]
COc1ccc(-c2cnc(C(=O)Nc3ccc(C(=O)N4CCN(C(=O)C[N+](C)(C)CC(N)=O)CC4)c(C)c3)n2C)c(F)c1F [Example B1, (2-Amino-2-oxo-ethyl)-[2-[4-[4-[[5-(2,3-difluoro-4-methoxy-phenyl)-1-methyl-imidazole-2-carbonyl]amino]-2-methyl-benzoyl]piperazin-1-yl]-2-oxo-ethyl]-dimethyl-ammonium;formate]	280	–
CCc1cc(NC(=O)c2ncc(-c3ccc(OC(F)F)c(F)c3F)n2C)ccc1C(=O)N1CCN(C(=O)C2CC[N+](C)(CC3CCNC3)CC2)CC1 (stereo not shown) [Example C17, 5-[4-(difluoro-methoxy)-2,3-difluoro-phenyl]-N-[3-ethyl-4-[4-[1-methyl-1-(pyr-rolidin-3-ylmeth-yl)piperidin-1-ium-4-carbonyl]-piperazine-1-carbonyl]phenyl]-1-methyl-imid-azole-2-carbox-amide; 2,2,2-trifluoroacetate; 2,2,2-trifluoro-acetic acid]	220	–
COc1ccc(-c2cnc(C(=O)Nc3ccc(C(=O)N4CCN(C(=O)[C@@H]5[C@H](O)CC[N+]5(C)C)CC4)c(Cl)c3)n2C)c(F)c1F [Example B44, N-[3-chloro-4-[4-[(2S,3R)-3-hydroxy-1,1-dimethyl-pyrrolidin-1-ium-2-carbonyl]piperazine-1-carbonyl]phenyl]-5-(2,3-difluoro-4-methoxy-phenyl)-1-methyl-imidazole-2-carboxamide; formate]	–	420
COc1ccc(-c2cnc(C(=O)Nc3ccc(C(=O)NCc4cn(CCCO)[n+](C)c4)c(Cl)c3)n2C)c(F)c1F [Example A21, N-[3-chloro-4-[1-(3-hydroxypropyl)-2-methyl-pyrazol-2-ium-4-yl]methylcarbamoyl]phenyl]-5-(2,3-difluoro-4-methoxy-phenyl)-1-methyl-imidazole-2-carboxamide; formate]	330	–

Second part, led by results:

IC90 [1] [nM]	SMILES	IC90 (Acinetobacter baumannii, ATCC17961, 16 h, read-out: ATCC 17961 IC90, Acinetobacter baumannii ATCC17961) [nM]
170	COc1ccc(-c2cnc(C(=O)Nc3ccc(C(=O)N4CCC(C(=O)NCc5cnc(NC(=O)C6CC[N+](C)(C)CC6)s5)CC4)c(Cl)c3)n2C)c(F)c1F [Example A31, N-[5-[[1-[2-chloro-4-[[5-(2,3-difluoro-4-methoxy-phenyl)-1-methyl-imidazole-2-carbonyl]amino]benzoyl]piperidine-4-carbonyl]amino]methyl]thiazol-2-yl]-1,1-dimethyl-piperidin-1-ium-4-carboxamide; formate]	–
110	COc1ccc(-c2cnc(C(=O)Nc3ccc(C(=O)N4CCN(C(=O)[C@@H]5C[C@@](C)(O)C[N+]5(C)C)CC4)c(Cl)c3)n2C)c(F)c1F [Example B30, (2S,4R)-2-(4-(2-chloro-4-(5-(2,3-difluoro-4-methoxyphenyl)-1-methyl-1H-imidazole-2-carboxamido)benzoyl)piperazine-1-carbonyl)-4-hydroxy-1,1,4-trimethylpyrrolidin-1-ium formate]	–
640	COc1ccc(-c2cnc(C(=O)Nc3ccc(C(=O)N4CCN(C(=O)C5CC[N+](C)(CC(=O)O)CC5)CC4)c(Cl)c3)n2C)c(F)c1F (stereo not shown) [Example C8, 2-[4-[4-[2-chloro-4-[[5-(2,3-difluoro-4-methoxy-phen-yl)-1-methyl-imidazole-2-carbonyl]amino]-benzoyl]piper-azine-1-carbon-yl]-1-methyl-piperidin-1-ium-1-yl]acetic acid; formate]	–
